Laboratory results as given in patent publication US20090068143A1, “ORALLY EFFECTIVE C[…]” (priority 2005, published 2009).
In brackets after ≈: the same amount, converted by molar mass. Where two headings read alike, the source gives them in different places. Marks after values point to notes of the source that are not given here.

Assays:
[1] = Actual solubility in aqueous buffers / cosolvent (HPLC, spectrophotometer); format: physicochemical; conditions: for solubility: thermodynamic from solid
Protocol: The actual solubility of certain compounds of the invention was assessed in aqueous buffers and final concentration of compounds was determined using HPLC and spectrophotometer methodologies. […] Therefore, compounds that were designed following the same rational yielded unexpectedly divergent outcome, for instance in connection with solubility in aqueous solutions.
It should be noted that following lyophilization compound 18F could be dissolved in 80 mM phosphate buffer at pH 6.9 even more efficiently at concentrations up to 60 mg/ml, about two order of magnitudes higher than expected.
Approximately 11 g of compound 18F were lyophilized in one lyophilization cycle. A cosolvent mixture comprising 38.6% w/v of compound 18F was divided into several dishes to fit the lyophilization chamber. As a result of lyophilization, a dry product with improved physical properties such as flowability and less stickiness was obtained.

[2] = test system: IL-1β; test: Real-time RT-PCR gene expression in CNS of MOG induced EAE: IL-1β; format: in vivo, mouse
Protocol: (§1) Total RNA is prepared using SV total RNA isolation system (Promega). The brains and spinal cords, which were removed on day 31 from five animals treated with vehicle (i.e. untreated) or 40 mg/kg p.o. of compound 18F (i.e. treated) in the MOG-induced EAE study, were homogenized in lysis buffer. The lysates were transferred to an RNA isolation column, treated with DNAse, washed and eluted according to kit instructions. RNA concentrations were determined using GeneQuant II (Pharmacia-Amersham). Complementary DNA (cDNA) was synthesized from total RNA using […] II reverse transcriptase (Life Technologies). 2 μg of total RNA were combined with an oligo (dT)15 primer, 0.5 mM dNTP mix, 8 units of reverse transcriptase and other reaction components up to a final volume of 20 μl, according to the kit instructions. The reaction mixture was incubated at 42° C. for 45 min and inactivated at 70° C. for 15 minutes. Quantitative real-time RT-PCR included 1 μl of the cDNA, 300 nM of the appropriate forward and reverse primers (according to the gene monitored) and 7.5 μl of the reaction mix containing buffer, nucleotides, Taq polymerase and SYBER green (SYBER Green master mix, Applied Biosystems), in a total reaction volume of 15 μl. Gene amplification was obtained using the GeneAmp 5700 sequence detection system (Applied Biosystems). […] During each annealing step, the amount of the amplified product was measured by the fluorescence of the double strand DNA binding dye, SYBER Green. The cycle of threshold (CT), representing the PCR cycle at which an increase in fluorescence above a baseline signal can be first detected, was determined for each product. […] Results were expressed as fold increase of gene expression in treated or untreated animals above the naive animals. […]
The results expressed as folds gene expression over naive animals (following normalization to Cyclophilin) are compiled in the following table. […] Statistical significance was analyzed by unpaired two-tailed t-test and one asterisk (*) indicates statistical significance of p<0.05, whereas ** indicates statistical significance of p<0.01.

[3] = test system: TNF-α; test: Real-time RT-PCR gene expression in CNS of MOG induced EAE: TNF-α; format: in vivo, mouse; conditions: 40 mg/kg p.o., day 31; over naive animals
Protocol: as §1, with “2 μg of total RNA were combined with an oligo (dT)15 primer, 0.5 mM dNTP mix, 8 units of reverse transcriptase and other reaction components up to a final volume of 20 μl, according to the kit instructions. The reaction mixture was incubated at 42° C. for 45 min and inactivated at 70° C. for 15 minutes.” left out, “μl.” for “μl. Gene amplification was obtained using the GeneAmp 5700 sequence detection system (Applied Biosystems).”

[4] = test system: F4/80; test: Real-time RT-PCR gene expression in CNS of MOG induced EAE: F4/80; format: in vivo, mouse; conditions: 40 mg/kg p.o., day 31; over naive animals
Protocol: as §1, with “2 μg of total RNA were combined with an oligo (dT)15 primer, 0.5 mM dNTP mix, 8 units of reverse transcriptase and other reaction components up to a final volume of 20 μl, according to the kit instructions. The reaction mixture was incubated at 42° C. for 45 min and inactivated at 70° C. for 15 minutes.” left out, “μl.” for “μl. Gene amplification was obtained using the GeneAmp 5700 sequence detection system (Applied Biosystems).”

[5] = test system: inflammatory pain; test: Inflammatory pain and paw edema, λ carrageenan; format: in vivo, Sprague Dawley rats; conditions: for ΔLT between hind paws, thermal stimulus: 3 hours; for reduction of delta force between paws, tactile stimulus: vehicle 31 g
Protocol: Male Sprague Dawley rats (average body weight 200 g, Harlan, Israel) were transiently sedated by placement on dry ice for the duration of the injections. Rats were injected subcutaneously, in the subplantar region of one (right) paw with 0.1 ml of 2% w/v λ Carrageenan in sterile saline. […] Test compounds were administered p.o. by oral gavage immediately after the carrageenan injection as pretreatment. Vehicle (PB) treated animals were used as controls. Before induction of inflammatory pain and three hours after injection, the animals reactions to pain stimuli were tested in two systems. The first stimulus was thermal and assessed by the Plantar Test according to Hargreaves, using Ugo Basile Model 7370. The scale was set to an intensity of 50 arbitrary units. The latency time till the animal lift a paw as a reaction to the thermal stimulus was recorded for both the inflamed and non-inflamed hind paws. The second stimulus was mechanical (tactile) and assessed using a Dynamic Plantar Sesthesiomether (Ugo Basile Model 73400-002). […] Finally, the impact on paw edema was assessed. Paw thickness is measured using a dial thickness gauge (Spring-dial, constant low pressure gauge, Mitutoyo, TG/L-1, 0.00 mm) and paw volume is measured using a plethysmometer (model #7150, Ugo Basile, Italy). At the end of the study, animals were euthanized with an i.p. injection of 100 mg/kg pentobarbitone.
The results are measured as the differences between the two hind paws at time 0 and 3 hours both as ALT, for the latency time in the thermal part of the study, and as ΔForce, for the mechanical part of the study. The paw volume is expressed as percent from vehicle treated animals. Results are expressed as mean±SEM for each treatment group and the differences among those groups are analyzed by analysis of variance (ANOVA) followed by post-hoc Tukey's test. A value of p<0.05 was considered to be statistically significant and is indicated on the figure by an asterisk over the relevant treatment group.

[6] = test system: ICR male mice; test: Tetrad Assay (safety)

CCCCCCC(C)(C)c1cc(O)c([C@H]2CC(=O)C3CC2C3(C)C)c(OC(=O)/C=C/C(=O)O)c1 (single isomer, unassigned; (-)) [Compound 18F, (−)-4-{4-[1,1-Dimethylheptyl]-2-fumarate-6-hydroxy-phenyl}-6,6-dimethyl-bicyclo[3.1.1]heptan-2-one]
solubility ([1]; 80 mM phosphate buffer, aqueous buffer, 80 mM phosphate buffer, read-out: solubility of non-lyophilized material): ~10 mg/mL (≈ 21.2 mM)
solubility ([1]; 80 mM phosphate buffer, pH 6.9, aqueous buffer, lyophilized, 80 mM phosphate buffer, pH 6.9, read-out: solubility following lyophilization): ≤ 60 mg/mL
solubility ([1]; 80 mM phosphate buffer, pH 7.8, aqueous buffer, 80 mM phosphate buffer, pH 7.8, read-out: actual solubility): ≤ 12 mg/mL
actual solubility higher than expected ([1]; 80 mM phosphate buffer, pH 7.8 vs calculated): about 20 fold
dissolution in organic cosolvent solution ([1]; tert.butanol and water 62.5:32.5 (v/v)): up to 80 mg/ml
Fold gene expression IL-1β, Brain, Treated ([2]; 40 mg/kg p.o., day 31, over naive animals, untreated 5.5): 3* fold
Fold gene expression IL-1β, Spinal Cord, Treated ([2]; 40 mg/kg p.o., day 31, over naive animals, untreated 11): 4* fold
IL-1β overexpression in brain and spinal cord ([2]; treated p.o., untreated 5 to 11-fold): 3-4 fold
Fold gene expression TNF-α, Brain, Treated [3]: 2.5 fold
Fold gene expression TNF-α, Spinal Cord, Treated [3]: 15 fold
Fold gene expression F4/80, Brain, Treated [4]: 1.5 fold
Fold gene expression F4/80, Spinal Cord, Treated [4]: 5.5 fold
decrease in paw volume ([5]; 10 mg/kg p.o.): 6%
percent reduction of delta force, tactile stimulus ([5]; 10 mg/kg p.o.): 23%
reduction of ΔLT, thermal stimulus ([5]; 10 mg/kg p.o.): no reduction
ΔLT between hind paws, thermal stimulus ([5]; 10 mg/kg p.o., vehicle about 7.5): 7.5 s
decrease in paw volume ([5]; 20 mg/kg p.o.): 18%
paw volume, percent of vehicle ([5]; 20 mg/kg p.o.): 82%
reduction of ΔLT, thermal stimulus ([5]; 20 mg/kg p.o.): 69%
ΔLT between hind paws, thermal stimulus ([5]; 20 mg/kg p.o.): 2.3 s
reduction of delta force between paws, tactile stimulus ([5]; 20 mg/kg p.o.): 18 g
reduction of ΔLT, thermal stimulus ([5]; 30 mg/kg p.o.): 88%
ΔLT between hind paws, thermal stimulus ([5]; 30 mg/kg p.o.): 0.9 s
decrease in paw volume ([5]; 30 mg/kg p.o., significant): 52%
reduction of delta force between paws, tactile stimulus ([5]; 30 mg/kg p.o.): 19 g
percent reduction of delta force, tactile stimulus ([5]; 20 and 30 mg/kg p.o.): about 60%
reduction in Δforce, mechanical stimulus ([5]; single dose of 20 mg/kg p.o.): 58%
body temperature ([6]; 30, 60, 80 and 100 mg/kg p.o.): transient hypothermia
time to regain normothermia ([6]; 30 and 60 mg/kg p.o.): ≤ 24 h
body temperature below baseline at the end of follow-up period ([6]; 80 and 100 mg/kg p.o.): 2 °C
safety at therapeutically effective doses ([6]; doses of up to 60 mg/kg p.o.): found to be safe
catalepsy and spontaneous or forced locomotor activity ([6]; p.o., up to maximal dose tested of 100 mg/kg): no effect
